Data taken from US11116746B2, “Use of rice bran oil distillate extract for prevention and mitigation of the effects of radiation” (Tocol Pharmaceuticals, LLC, priority 2015, dated 2021).

Columns and labels:
HaCaT cells [1] = assay: In vitro scratch assay (keratinocyte migration) after 8 Gy IR; type: cell-based, human; details: 5 μM given 4 h after IR exposure
Method: Human immortalized keratinocytes (HaCaT cells) were plated in 12 well culture plates and irradiated with 8 Gy or sham irradiated 24 h after plating. The cells were given either vehicle (DMSO, 0.1% v/v) or 5 μM of DT3 or 5 μM of TRFRB 4 hours following radiation. Culture media were replaced again at 36 h following radiation. At the 72 h time point, a scratch was made using a sterile micropipette tip in each well. This created an open area into which the keratinocytes migrated. Two areas of the scratch margins were imaged daily until scratches were closed. The area of the scratch remaining was measured on the images at five points per field, with two fixed fields averaged using Cell Analyzer 1.0 (BWTech, Iowa City, Iowa). Measurements were stopped when cells no longer made positive progress towards the scratch origin. See Ross et al., Exp Dermatol 2011, 20, 58-63.
This protection in the increased survival fraction was not statistically significant compared to 8 Gy IR alone group (FIG. 7). An in vitro scratch assay was utilized to evaluate the protective efficacy of TRFRB for keratinocyte migration function when the cells were treated with TRFRB after IR exposure.

HaCaT cells [2] = assay: Mitochondrial bioenergetics (mitochondrial uncoupling) in irradiated keratinocytes; type: cell-based, human; details: 5 μM pretreatment 16 h prior to 8 Gy IR; 48 h following IR; normalized to sham irradiated control
Method: In order to determine the radioprotective effects of TRFRB, human immortalized keratinocytes (HaCaT cells) were plated in 96 well Seahorse plates. The next day they were treated with either vehicle (DMSO, 0.1% v/v) or 5 μM of DT3 or 5 μM of TRFRB overnight. The Seahorse plates were either sham irradiated or irradiated with 8 Gy of γ-irradiation. Both plates were sequentially run in the XF96 extracellular analyzer as described above.
Secondly we utilized an immortalized human skin keratinocyte line (HaCaT cells) to evaluate the radioprotective effects of TRFRB. HaCaT cells were pretreated with DMSO vehicle or 5 μM of DT3 or TRFRB for 16 h prior to 8 Gy IR. Then the cellular bioenergetics and mitochondrial respiration in these cells were assayed at 48 h following IR exposure as described with H9c2 cells. The percent mitochondrial uncoupling is defined and calculated by determining the increase in the ratio of basal respiration to maximum respiration (OCR following FCCP treatment) and the data was normalized to the sham irradiated control group.

[3] = tested on: H9c2 rat heart cardiomyocytes; assay: Mitochondrial bioenergetics (oxygen consumption rate, XF96 analyzer) in H9c2 cells with or without H2O2; type: cell-based
Method: Oxygen consumption rate (OCR) was measured at 37° C. using an XF96 extracellular analyzer (Seahorse Bioscience) as previously described Pathak et al., Antioxid Redox Signal 2014, 20, 1436-1446. H9c2 rat heart cardiomyocytes cells were plated in 96 well Seahorse plates. The next day they were treated with either vehicle (DMSO, 0.1% v/v) or 5 μM of DT3 or 5 μM of TRFRB overnight. The cells were then treated with 50 or 100 μM H2O2 for 4 h at 37° C. The media in the wells were changed to unbuffered DMEM supplemented with 4 mM […] and incubated in a non-CO2 incubator for 1 h at 37° C. Three baseline measurements were acquired before injection of mitochondrial inhibitors or uncouplers. Readings were taken after sequential addition of oligomycin (10 μM), carbonylcyanide 4-(trifluoromethoxy)phenylhydrazone (FCCP, 10 μM) and rotenone/antimycin A (10 μM). Oxygen consumption rates were calculated by the Seahorse XF-96 software and represent an average of 3 measurements on 8 different wells. The rate of measured oxygen consumption was reported as pmol O2 consumed per minute per 10,000 cells.
Therefore, the next experiment assessed the effects of TRFRB and pure DT3 on cellular bioenergetics and mitochondrial respiration in the absence of any cellular stress. Intracellular mitochondrial function was examined by sequentially adding inhibitors of oxidative phosphorylation. Initially we took 3 measurements to determine the “basal respiration” of the cells. By injecting an inhibitor of mitochondrial ATP synthase (oligomycin), a decrease in oxygen consumption rate (OCR) was obtained and this decrease in OCR is termed as “ATP linked respiration”. In order to determine the maximal respiration potential of the cells, FCCP, an uncoupler, was used. Immediately following FCCP injection, oxygen consumption increased and cells reached to their maximum respiration. Mitochondrial “reserve respiratory capacity” was calculated by subtracting […]. Overnight (16 h) treatment of both DT3 and TRFRB increased basal oxygen consumption rate (OCR) as well as maximum OCR in H9c2 rat heart cardiomyocytes (FIG. 4A). […] 100 μM H2O2 treatment for 4 h completely halted the cellular respiration (FIGS. 4B and C).

[4] = single injection; cited from earlier work
[5] = tested on: H9c2 rat heart cardiomyocytes; assay: Cell morphology of cardiomyocytes after H2O2 damage; type: cell-based; details: 5 μM pretreatment overnight; 100 and 200 μM H2O2 for 4 h
Method: H9c2 rat heart cardiomyocytes were treated with either vehicle control (DMSO, 0.1% v/v), 5 μM delta-tocotrienol or 5 μM TRFRB overnight. Cells were then exposed to 100 or 200 μM H2O2 for 4 h. Morphological changes were recorded under an inverted microscope. Pictures were taken at 10× magnification. Scale bar represents 400 μm.
We then investigated whether TRFRB can protect the various cells types from different tissue origins against H2O2 or IR induced oxidative damage.

[6] = tested on: TBHP induced lipid peroxidation in Wistar rat liver microsomes; assay: TBARS assay: inhibition of TBHP induced microsomal lipid peroxidation; type: biochemical; details: microsomes pretreated 1 h, then TBHP 30 min; TRFRB expressed in μM of tocotrienols; read-out: IC50, concentration that reduced the amount of lipid peroxidation approximately 50%
Method: The antioxidant activity of TRFRB was assessed measuring the ability to prevent microsomal lipid peroxidation. For this a TBARS assay was performed using a modified version of the original method described by Buege and Aust, Microsomal lipid peroxidation. Methods Enzymol 1978, 52, 302-310. Briefly, rat liver microsomes (BD Bioscience) were suspended in PBS in glass tubes at final concentration of 1 mg/mL. To this, increasing concentrations of TRFRB dissolved in DMSO were added. DMSO alone was used as control. The final DMSO percentage was kept under 0.1%. Microsomes were subsequently incubated with the test compounds at 37° C. for one hour in a shaking water bath (100 rpm). After one hour, freshly made tert-Butyl hydroperoxide (TBHP) solution was added to microsomes at a final concentration of 200 μM and incubation was continued for another 30 mins. The reaction was terminated by addition of 20% trichloroacetic acid and tubes were placed on ice for 15 mins. Equal volume of 0.67% thiobarbituric acid in 0.05N NaOH was added and the final mixture was heated at 95° C. for 45 mins to allow the color to develop. Finally, the tubes were cooled on ice and centrifuged at 1000 rpm for 20 mins and the supernatant was read at 532 nm. The percent TBARS was calculated using a standard curve obtained using malondialdehyde (MDA). […]

| SMILES | migration rates (HaCaT cells [1]) | degree of mitochondrial uncoupling (HaCaT cells [2]) | mitochondrial respiration following H2O2 injury ([3]; 5 μM for 16 h prior to 50 or 100 μM H2O2 for 4 h) | basal oxygen consumption rate (OCR) ([3]; 5 μM overnight (16 h), no cellular stress) | maximum OCR ([3]; 5 μM overnight (16 h), no cellular stress, after FCCP) | reserve respiratory capacity ([3]; calculated from maximum and basal OCR) | dose reduction factor (DRF) as a radiomitigator [4] | dose reduction factor (DRF) as a radioprotectant [4] | protection of cell morphology against H2O2 treatment [5] | IC50 [6] [µM] |
| --- | --- | --- | --- | --- | --- | --- | --- | --- | --- | --- |
| CC(C)=CCC/C(C)=C/CC/C(C)=C/CC[C@]1(C)CCc2cc(O)cc(C)c2O1 [DT3, δ-tocotrienol] | partially restored | this increase was reversed | complete protection and restored the mitochondrial respiration | increased | increased | an increase in reserve respiratory capacity | 1.1 | 1.27 | significantly protected the morphology |  |
| CC(C)=CCC/C(C)=C/CC/C(C)=C/CC[C@]1(C)CCc2cc(O)c(C)c(C)c2O1 [GT3, γ-tocotrienol] |  |  |  |  |  |  |  | 1.29 |  | 7 |
